Reference: patent publication US10759777B2, “Carbazole-containing amides, carbamates, and ureas as cryptochrome modulators” (Synchronicity Pharma, Inc., priority 2014, dated 2020)

Tested on: Dbp gene expression in whole blood
Assay: Dbp mRNA in whole blood of db/db mice
Assay type: in vivo, mouse
Settings: 100 mg/kg PO once daily for three days at ZT0, sampled ZT7.5
Method: For whole blood RNA studies, male db/db mice (9 weeks of age, The Jackson Laboratory, Bar Harbor, Me.) were used for the experiment with n=8 mice for each experimental group. […] On the final day at ZT7.5 (2:30 pm), animals were euthanized using CO2 asphyxiation, and the blood collected from the heart via cardiac puncture. The blood was placed in RNALater solution to 1.5 ml total volume. Total RNA was prepared using an Ambion Mouse RiboPure Blood RNA Isolation Kit AM1951 as follows. Samples were centrifuged for 3 minutes, discarding the supernatant. Two ml of lysis solution was added and vortexed, transferred to a 15 ml tube followed by the addition of […]. Lysis buffer was added to a total volume of 3.8 ml and vortexed. The sample mixture was extracted with 1.5 ml Acid Phenol: Chloroform and the aqueous phase was recovered. After adding 0.5 volumes of 100% ethanol and vortexing, the samples were passed through a filter column provided in the kit and washed with 750 microliters of wash buffer 1. The filter was washed with 2 passes of 750 microliters wash buffer 2/3 and dried. […]
For PCR analysis, the kit utilized was TaqMan® Fast Universal Master Mix (2×), No AmpErase® UNG. […] At least one housekeeping mRNA Expression Assay (e.g. GAPDH; Mm03302249_g1 or Hs02758991_g1) was included in each set of RNA samples to be assessed. […]

O=C1NCCN1CC(O)Cn1c2ccc(F)cc2c2cc(F)ccc21 (stereo not shown) [Compound 72, 1-(3-(3,6-difluoro-9H-carbazol-9-yl)-2-hydroxypropyl)imidazolidin-2-one]
Dbp gene expression in whole blood: statistically significant suppression
